This note sets out measurements from patent US20080312435A1, “Imine Compound” (TAISHO PHARMACEUTICAL CO., LTD., priority 2004, published 2008).

The target in one data set is T1, human CB2 receptor (Homo sapiens, UniProt P34972).
T1 construct: expressed in transfected cells
The experiment in a line: Human CB2 receptor binding inhibition test ([3H]CP-55,940, CHO membrane fractions). The note with it: [3H]CP-55,940, membrane fractions of CHO cells stably expressing human CB2 receptor, 25° C., 2 hours; read-out: CB2 IC50 (Inhibition of binding to human CB2 receptor). An outline of the steps:
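Membranes from CHO-DHFR(−) cells stably expressing human CB2 used for [3H]CP-55,940 binding; filter-bound radioactivity counted by scintillation after washes with 0.1% BSA buffer. Nonspecific binding defined with 2.0 μM CP-55,940; IC50 for inhibition of specific binding.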

T1 sequence (P34972 whole entry): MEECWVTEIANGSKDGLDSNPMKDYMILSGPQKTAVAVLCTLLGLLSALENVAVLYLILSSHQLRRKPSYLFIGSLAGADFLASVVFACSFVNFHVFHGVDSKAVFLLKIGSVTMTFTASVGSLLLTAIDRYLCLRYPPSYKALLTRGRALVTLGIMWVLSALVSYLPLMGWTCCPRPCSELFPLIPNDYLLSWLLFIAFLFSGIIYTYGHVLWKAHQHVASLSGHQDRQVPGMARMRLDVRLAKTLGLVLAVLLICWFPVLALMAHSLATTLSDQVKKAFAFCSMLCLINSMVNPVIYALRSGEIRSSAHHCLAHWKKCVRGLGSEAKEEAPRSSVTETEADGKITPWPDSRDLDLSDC

Molecule `Cc1c(C(C)(C)C)s/c(=N\C(=O)c2ccccc2I)n1C` [compound 122] yielded a melting point of 83 to 85 °C. In addition, the IC50 at human CB2 receptor was found to be 8.9 nM.

On to `Cc1c(C(C)(C)C)s/c(=N\C(=O)c2ccc(F)c(F)c2F)n1CC1CC1` [compound 282], for which the melting point was in the range of 82 to 84 °C. Also, the IC50 at human CB2 receptor came out at 14.5 nM.

On to `CCn1c(C)c(C(C)(C)C)s/c1=N\C(=O)c1cnccc1C(F)(F)F` [compound 170], for which the melting point fell in the range of 110 to 112 °C. In addition, at human CB2 receptor, the IC50 was determined as 13.8 nM.

In turn, `O=C(/N=c1\cc(Cl)ccn1CC1CC1)c1cccc(C(F)(F)F)c1F` [compound 33] had a melting point of 91 to 93 °C. For the same molecule, the half-inhibitory concentration (IC50) on human CB2 receptor amounted to 8.2 nM.

Take `Cc1s/c(=N\C(=O)c2ccccc2Br)n(CC2CC2)c1C` [compound 76]: the melting point fell in the range of 114 to 116 °C. In addition, at human CB2 receptor, the concentration for half-maximal inhibition (IC50) stood at 14.4 nM.

On to `CCOCCn1/c(=N/C(=O)c2cccc(C(F)(F)F)c2C)cc(C(C)(C)C)n1C` [compound 489], for which the melting point fell in the range of 132 to 133 °C. Further, the half-maximal inhibitory concentration (IC50) at human CB2 receptor came to 6 nM.

`Cc1c(C(C)C)s/c(=N\C(=O)c2cccc(C(F)(F)F)c2F)n1CC1CC1` [compound 113]: the melting point is 64 to 66 °C. At human CB2 receptor, the 50% inhibitory concentration (IC50) came out at 1.1 nM.

On to `Cc1cn(CC2CC2)/c(=N/C(=O)c2cccc(C(F)(F)F)c2F)s1` [compound 67], for which the melting point was in the range of 129 to 130 °C. Moreover, the IC50 at human CB2 receptor was 3 nM.

`Cc1cccc(C(=O)/N=c2\sc(C(C)(C)C)c(C)n2CC2CC2)c1` [compound 179] showed a melting point of 132 to 134 °C. In addition, the IC50 on human CB2 receptor worked out at 17.8 nM.

With `COCCn1c(C)c(C(C)C)s/c1=N\C(=O)c1cccc(C(F)(F)F)c1F` [compound 114], the melting point was 132 to 134 °C. In addition, the IC50 at human CB2 receptor was 1.6 nM.

`Cc1c(Cl)s/c(=N\C(=O)c2cccc(C(F)(F)F)c2F)n1CC1CC1` [compound 365]: the melting point lay in the range of 130 to 132 °C. The half-inhibitory concentration (IC50) at human CB2 receptor worked out at 3.4 nM.

With `Cc1c(C(C)(C)C)s/c(=N\C(=O)c2ccccc2F)n1CC1CC1` [compound 185], the melting point lay in the range of 182 to 183 °C. The 50% inhibitory concentration (IC50) at human CB2 receptor stood at 11 nM.

`Cc1c(C(C)(C)C)s/c(=N\C(=O)c2cc(F)ccc2Br)n1C` [compound 131]: the melting point lay in the range of 161 to 162 °C. Besides, at human CB2 receptor, the concentration for half-maximal inhibition (IC50) amounted to 5.6 nM.

Take `Cc1s/c(=N\C(=O)c2cc(F)c(F)cc2Cl)n(CC2CC2)c1C` [compound 85]: the melting point was in the range of 161 to 163 °C. Also, at human CB2 receptor, the IC50 came to 18.9 nM.

`Cc1c(C(C)(C)C)s/c(=N\C(=O)c2cc(Br)ccc2F)n1CC1CC1` [compound 230] came in with a melting point of 113 to 114 °C. Also, the IC50 at human CB2 receptor was 1.5 nM.

`Cc1ccc(C(=O)/N=c2\sc(C)c(C)n2CC2CC2)c(Br)c1` [compound 91] registered a melting point of 90 to 92 °C. The 50% inhibitory concentration (IC50) at human CB2 receptor was found to be 7.9 nM.

Turning to `Cc1c(C(C)(C)C)s/c(=N\C(=O)c2cc(F)ccc2C(F)(F)F)n1C` [compound 143], the melting point lay within 83 to 85 °C. Besides, the IC50 on human CB2 receptor was 7.4 nM.

Consider `Cc1ccc(F)cc1C(=O)/N=c1\sc(C)c(C)n1CC1CC1` [compound 89], for which the melting point fell in the range of 82 to 84 °C. Besides, on human CB2 receptor, the IC50 was 9.8 nM.

Regarding `CC(C)(C)c1nn(CC2CC2)/c(=N/C(=O)c2cccc(C(F)(F)F)c2F)o1` [compound 514], the melting point is 108 to 110 °C. Moreover, on human CB2 receptor, the IC50 is 2.6 nM.

For the molecule `COc1ccc(OC)c(C(=O)/N=c2\sc(C(C)(C)C)c(C)n2CC2CC2)c1` [compound 234], the melting point was 83 to 85 °C. In addition, the 50% inhibitory concentration (IC50) on human CB2 receptor came to 0.7 nM.

The molecule `Cc1ccc/c(=N\C(=O)c2cccc(C(F)(F)F)c2F)n1CC1CC1` [compound 25] had a melting point of 96 to 98 °C. The concentration for half-maximal inhibition (IC50) at human CB2 receptor is 17.4 nM.

As to `Cc1c(C(C)(C)C)s/c(=N\C(=O)c2cc(C(F)(F)F)ccc2F)n1CC1CC1` [compound 251], the melting point was in the range of 113 to 115 °C. Also, at human CB2 receptor, the concentration for half-maximal inhibition (IC50) was found to be 3.4 nM.

The molecule `CCn1c(C)c(C(C)(C)C)s/c1=N\C(=O)c1ccccc1OC(F)(F)F` [compound 153] returned a melting point of 104 to 105 °C. Also, on human CB2 receptor, the IC50 came out at 17.8 nM.

The molecule `O=C(/N=c1\cc(C(F)(F)F)ccn1CC1CC1)c1cccc(C(F)(F)F)c1F` [compound 29] yielded a melting point of 85 to 86 °C. Moreover, the IC50 on human CB2 receptor turned out to be 8.6 nM.

`COCCCn1c(C)c(C)s/c1=N\C(=O)c1cccc(C(F)(F)F)c1F` [compound 105] displayed a melting point of 104 to 106 °C. The IC50 on human CB2 receptor was found to be 1.7 nM.

The molecule `Cc1c(C(C)(C)C)s/c(=N\C(=O)c2cc(F)c(F)cc2F)n1CC1CC1` [compound 283] yielded a melting point of 78 to 79 °C. In addition, the 50% inhibitory concentration (IC50) at human CB2 receptor was found to be 5.9 nM.

Molecule `CCn1c(C)c(C(C)(C)C)s/c1=N\C(=O)c1cccc(C(F)(F)F)c1F` [compound 165] came in with a melting point of 97 to 99 °C. The IC50 on human CB2 receptor was found to be 4.3 nM.

With `O=C(/N=c1\sc2ncccc2n1CC1CC1)c1cccc(C(F)(F)F)c1F` [compound 382], the melting point was 156 to 158 °C. Besides, the half-inhibitory concentration (IC50) at human CB2 receptor is 17 nM.

In turn, `CCc1s/c(=N\C(=O)c2cccc(C(F)(F)F)c2F)n(CC2CC2)c1C` [compound 109] yielded a melting point of 164 to 166 °C. The IC50 on human CB2 receptor amounted to 1.3 nM.

On to `Cc1c(C(=O)/N=c2\cc(C(C)(C)C)n(C)n2CC2CCC2)cccc1C(F)(F)F` [compound 483], for which the melting point lay within 133 to 134 °C. The half-inhibitory concentration (IC50) at human CB2 receptor came to 8.3 nM.

Turning to `Cc1c(Br)cccc1C(=O)/N=c1\sc(C(C)(C)C)c(C)n1C` [compound 140], the melting point lay in the range of 143 to 144 °C. The IC50 at human CB2 receptor came out at 6.1 nM.

`Cc1ccc(C(=O)/N=c2\sc(C(C)(C)C)c(C)n2CC2CC2)c(F)c1F` [compound 287] returned a melting point of 122 to 124 °C. For the same molecule, the half-inhibitory concentration (IC50) at human CB2 receptor was determined as 13.5 nM.

Take `Cc1c(C(C)(C)C)s/c(=N\C(=O)c2cccc3cccnc23)n1CC1CC1` [compound 322]: the melting point lay in the range of 193 to 195 °C. In addition, on human CB2 receptor, the IC50 was 5.6 nM.

In turn, `Cc1c(C(C)(C)C)s/c(=N\C(=O)c2cc(F)c(F)cc2Cl)n1C` [compound 135] displayed a melting point of 145 to 146 °C. Moreover, at human CB2 receptor, the half-maximal inhibitory concentration (IC50) was determined as 11.9 nM.

Turning to `Cc1c(C(C)(C)C)s/c(=N\C(=O)c2cccc(C(F)(F)F)c2F)n1C` [compound 141], the melting point is 176 to 178 °C. In addition, at human CB2 receptor, the concentration for half-maximal inhibition (IC50) was 13.9 nM.

For the molecule `Cc1c(C(C)(C)C)s/c(=N\C(=O)c2cccc3cnccc23)n1CC1CC1` [compound 321], the melting point was 109 to 110 °C. Besides, the IC50 on human CB2 receptor came to 2.3 nM.

In the case of `CCn1c(C)c(C(C)(C)C)s/c1=N\C(=O)c1ccc(Cl)cc1C` [compound 162], the melting point was 125 to 126 °C. Also, at human CB2 receptor, the IC50 is 12 nM.

`CCn1c(C)c(C(C)(C)C)s/c1=N\C(=O)c1cc(F)ccc1Br` [compound 155] came in with a melting point of 115 to 116 °C. Also, the concentration for half-maximal inhibition (IC50) at human CB2 receptor turned out to be 4.3 nM.

Take `Cc1c(C(C)(C)C)s/c(=N\C(=O)C(F)(F)C(F)(F)C(F)(F)F)n1CC1CC1` [compound 336]: the melting point lay within 147 to 148 °C. For the same molecule, the 50% inhibitory concentration (IC50) at human CB2 receptor is 2.9 nM.

Turning to `O=C(/N=c1\cccc(Cl)n1CC1CC1)c1cccc(C(F)(F)F)c1F` [compound 35], the melting point fell in the range of 81 to 83 °C. For the same molecule, the 50% inhibitory concentration (IC50) on human CB2 receptor stood at 3.4 nM.

The term IC50 denotes the concentration at which inhibition is half-maximal. A word on the melting point: it is the temperature of the solid-liquid transition.
